Laboratory results published in patent publication US8415367B2, “Pyrimidinylpiperidinyloxypyridinone analogues as GPR119 modulators” (Bristol-Myers Squibb Company, priority 2010, dated 2013).
Where two headings read alike, the source gives them in different places.

Key:
[1] = target: T1, human-mouse chimeric GPR119 (Homo sapiens, UniProt Q8TDV5, A235T/C313R/C323Y/E253K/F304I/F307L/G211A/G245S/H255C/K284R/L224V/L258Q/L288Q/L301F/P218V/P318T/Q252H/R262K/S214P/S219N/S228A/S309P/S322A/T217S/T239S/V227I/V300F); assay: Tet-inducible cAMP assay (cAMP accumulation, HTRF); assay type: cell-based
T1 construct: the first 198 amino acids of human GPR119; the C-terminal 137 amino acids of the mouse receptor; expressed in transfected cells
T1 sequence (Q8TDV5 with tags, fused parts or gaps G211A/S214P/T217S/P218V/S219N/L224V/V227I/S228A/A235T/T239S/G245S/Q252H/E253K/H255C/L258Q/R262K/K284R/L288Q/V300F/L301F/F304I/F307L/S309P/C313R/P318T/S322A/C323Y): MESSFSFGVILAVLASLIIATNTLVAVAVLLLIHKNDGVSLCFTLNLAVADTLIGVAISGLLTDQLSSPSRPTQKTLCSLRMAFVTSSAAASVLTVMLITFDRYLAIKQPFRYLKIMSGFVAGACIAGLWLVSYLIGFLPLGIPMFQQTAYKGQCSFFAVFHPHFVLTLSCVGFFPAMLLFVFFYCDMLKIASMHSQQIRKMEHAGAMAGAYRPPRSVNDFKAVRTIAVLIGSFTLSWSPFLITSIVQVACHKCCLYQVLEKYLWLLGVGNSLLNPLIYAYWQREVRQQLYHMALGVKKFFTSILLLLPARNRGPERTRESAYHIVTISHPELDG
Method: The in vitro modulation of recombinant human GPR119 was determined as follows.
A human-mouse chimeric GPR119 expression construct encoding 3 copies of the FLAG epitope tag, the first 198 amino acids of human GPR119 and the C-terminal 137 amino acids of the mouse receptor was cloned into a tetracycline inducible vector pcDNA5/FRT/TO (Invitrogen #V6520-20), which includes a hygromycin-resistance marker. Tightly controlled receptor expression was achieved by stable integration of this construct into the genome of a specific host cell line, Flp-In-T-Rex-HEK293, expressing the tetracycline repressor (Invitrogen). Once a stable hygromycin-resistant cell line was generated, the cells were maintained at 37° C. in a humidified 5% CO2 atmosphere in culture medium consisting of Dulbecco's modified Eagle's medium (DMEM; Invitrogen #11960) supplemented with 2 mM L-glutamine, 10% fetal bovine serum, 200 μg/ml hygromycin B, and 15 μg/ml blasticidin.
Forty-eight hours prior to the cAMP accumulation assay, cells stably expressing the chimeric human/mouse GPR119 construct were seeded at a density of 4×10^3 cells/well in 384 well poly-D-lysine coated solid white plates (BD #35-6661) and grown at 37° C. in a humidified 5% CO2 atmosphere in culture medium supplemented with 1 μg/ml tetracycline to induce expression of the receptor. On the day of the assay, medium was removed and cells were incubated for 50 min. at 37° C. in a humidified 5% CO2 atmosphere in 20 μl/well of assay buffer (phosphate-buffered saline with Ca^2+ and Mg^2+, 12 mM glucose, 0.1 mM isobutyl-methyl-xanthine, 0.1% fatty-acid free bovine serum albumin) with the desired concentration of compound added from a concentrated stock dissolved in dimethyl sulfoxide (DMSO) to give a final concentration of 1% DMSO in the assay. cAMP accumulation was measured using the CisBio homogeneous time resolved fluorescence (HTRF) assay kit (#62AM2PEC) following the manufacturer's protocol. Briefly, 10 μl each of the cAMP-HTRF fluorescence detection reagents were added to each well, and the samples were incubated for 40 min. at room temperature. Fluorescence was excited at 320 nm and measured at 665 and 620 nm using the Envision instrument (Perkin Elmer), the fluorescence ratio of 665/620 was calculated and converted to nanomolar concentrations of cAMP in each well by interpolation from a cAMP standard curve. The concentration-response curves and EC50 values were calculated with a four parameter logistic curve fit equation utilizing Excel/XLfit software (Microsoft and IDBS). The EC50 value was calculated as the concentration of agonist which increased the cAMP concentration to a value halfway between the baseline and the maximum.
Compounds of the present invention were tested in the Tet-inducible cAMP assay described immediately above and the results shown in Table 5 below were obtained.

in vitro = conditions: human, microsomes, pH 7.4
Method: (§1) Metabolic Stability in Liver Microsomes Test
(§2) Human liver microsomes were purchased from BD-Biosciences (Woburn, Mass.). The test compound was received as a 3.5 mM stock solution in 100 percent dimethyl sulfoxide (“DMSO”, Sigma Aldritch). […] The test compound, β-nicotinamide adenine dinucleotide phosphate (“NADPH”, AppliChem Inc.) and liver microsome solutions are combined for incubation in three steps:
(§3) 1) 450 μl of liver microsome suspension, protein concentration of 1.1 mg/ml in 100 mM sodium (+)/phosphate (“NaPi”, pH 7.4, Sigma Aldritch) buffer, 5 mM magnesium chloride (“MgCl2, Sigma Aldritch) buffer, is pre-warmed at 37° C.;
(§4) 3) The reaction is initiated by the addition of 50 μl of pre-warmed 10 mM NADPH solution in 100 mM NaPi, pH 7.4.
(§5) Reaction components are mixed well and then 65 μl are immediately transferred into 130 μl of quench/stop solution (zero-time point, T0). […] ACN containing Internal Standard (100 ng/ml), is used as the quench solution to terminate metabolic reactions. The quenched mixtures are centrifuged at 1500 rpm (˜500×g) in an Allegra X-12 centrifuge, SX4750 rotor (Beckman Coulter Inc., Fullerton, Calif.) for fifteen minutes to pellet denatured microsomes. A volume of 90 μl of supernatant extract, containing the mixture of parent compound and its metabolites, is then transferred to a separate 96-well plate for LC/MS-MS analysis to determine the percent of parent compound that is remaining in the mixture. Peak integration is performed on all samples using the Hepatic Clearance Calculator of QuickCalc by Gubbs, Inc. The percent remaining calculation is performed by comparing the LC-MS/MS peak areas from the samples at each time point to those from the T0 samples for each compound.

male C57BL/6J mice = assay: Mouse oral glucose tolerance test; assay type: in vivo; conditions: for Minimally efficacious Dose / Glucose Lowering: oral; for Minimally efficacious Dose: given 60 min before glucose load (2 g/kg), oGTT in C57BL/6J mice; for Glucose Lowering: plasma glucose AUC change vs vehicle at the minimally efficacious dose
Method: Mouse Oral Glucose Tolerance Test
Twenty four (24) male C57BL/6J mice (8-10 weeks old, average weight 28 g) were randomized into 4 groups (1 mouse/cage) of 6 mice per group based on fed plasma glucose and body weight. Prior to initiating the study, mice were fasted overnight and the next morning they were weighed and placed in the experimental lab. After 30 min in the environment, the mice were bled via tail tip at −60 min and immediately given their first oral administration of vehicle (40% PEG400, 10% Cremophor EL, 50% water) or compound solutions (5 ml/kg). At time 0 the mice were bled and given 50% glucose (2 g/kg) to initiate the oral glucose tolerance test (oGTT). The mice were bled 30, 60 and 120 min after the glucose load. Blood samples were drawn into potassium EDTA, placed on ice during the study and subsequently centrifuged for 10 min at 3000 rpm at 4° C. Plasma samples were diluted 11-fold for glucose analysis in the COBAS MIRA® System (Roche Diagnostics). Area under the curve was calculated from the plasma glucose time course data using the trapezoid rule with fasting plasma glucose as the baseline (GraphPad Prism Software). The statistical significance of the changes in the glucose AUCs resulting from the different treatments was determined by one-way ANOVA followed by Dunnett's test using the vehicle group as the control (JMP software, release 5.1.2).
Find below in Table 6 data for compared compounds (See WO 2009/012275 A1).

[2] = Metabolic stability in liver microsomes test; conditions: human, pH 7.4
Method: as §1, §2, §3, §4, §5

[3] = Flp-In-T-Rex-HEK293 cells expressing chimeric human/mouse GPR119, cAMP accumulation, read-out: GPR119 EC50

SMILES | EC50 [1] [nM] | half-life at 0.5 µM (in vitro) [min] | Minimally efficacious Dose (male C57BL/6J mice) [mg/kg] | Glucose Lowering (male C57BL/6J mice) [%] | EC50 [1, 3] [nM] | reduction in glucose (male C57BL/6J mice; at the stated dose (0.1 mg/kg Example 1; 0.3 mg/kg Example 224 of WO 2009/012275 A1)) [%] | half-life at 0.5 µM [2] [min]
CS(=O)(=O)c1ccc(-n2cc(Cl)c(OC3CCN(c4ncc(C(F)(F)F)cn4)CC3)cc2=O)c(F)c1 [Example 2, 5-Chloro-1-(2-fluoro-4-(methylsulfonyl)phenyl)-4-(1-(5-(trifluoromethyl)pyrimidin-2-yl)piperidin-4-yloxy)pyridin-2 (1H)-one] | 12 | 147 | 0.1 | −29 |  |  | 
CCS(=O)(=O)c1ccc(-n2cc(Cl)c(OC3CCN(c4ncc(Cl)cn4)CC3)cc2=O)cc1 [Example 10, 5-Chloro-4-(1-(5-chloropyrimidin-2-yl)piperidin-4-yloxy)-1-(4-(ethylsulfonyl)phenyl)pyridin-2(1H)-one] |  | 35 |  |  | 2 |  | 
CS(=O)(=O)c1ccc(-n2cc(Cl)c(OC3CCN(c4ncc(Cl)cn4)CC3)cc2=O)c(F)c1 [Example 5, 5-Chloro-4-(1-(5-chloropyrimidin-2-yl)piperidin-4-yloxy)-1-(2-fluoro-4-(methylsulfonyl)phenyl)pyridin-2(1H)-one] | 3 | 105 | 0.06 | −29 |  |  | 
CS(=O)(=O)c1ccc(-n2cc(Cl)c(OC3CCN(c4ncc(C(F)(F)F)cn4)CC3)cc2=O)cc1 [Example 1, 5-Chloro-1-(4-(methylsulfonyl)phenyl)-4-(1-(5-(trifluoromethyl)pyrimidin-2-yl)piperidin-4-yloxy)pyridin-2(1H)-one] | 8 | 180 | 0.1 | −24 |  | 24 | 
CS(=O)(=O)c1ccc(-n2cc(Cl)c(OC3CCN(c4ncc(Cl)cn4)CC3)cc2=O)cc1F [Example 6, 5-Chloro-4-(1-(5-chloropyrimidin-2-yl)piperidin-4-yloxy)-1-(3-fluoro-4-(methylsulfonyl)phenyl)pyridin-2(1H)-one] | 4 |  | 0.1 | −36 |  |  | 39
CCS(=O)(=O)c1ccc(-n2cc(Cl)c(OC3CCN(c4ncc(C(F)(F)F)cn4)CC3)cc2=O)cc1F [Example 9, 5-Chloro-1-(4-(ethylsulfonyl)-3-fluorophenyl)-4-(1-(5-(trifluoromethyl)pyrimidin-2-yl)piperidin-4-yloxy)pyridin-2(1H)-one] |  | 88 |  |  | 13 |  | 
CCS(=O)(=O)c1ccc(-n2cc(Cl)c(OC3CCN(c4ncc(C(F)(F)F)cn4)CC3)cc2=O)c(F)c1 [Example 8, 5-Chloro-1-(4-(ethylsulfonyl)-2-fluorophenyl)-4-(1-(5-(trifluoromethyl)pyrimidin-2-yl)piperidin-4-yloxy)pyridin-2(1H)-one] |  | 120 | 0.03 | −26 | 8 |  | 
CCS(=O)(=O)c1ccc(-n2cc(Cl)c(OC3CCN(c4ncc(Cl)cn4)CC3)cc2=O)c(F)c1 [Example 11, 5-Chloro-4-(1-(5-chloropyrimidin-2-yl)piperidin-4-yloxy)-1-(4-(ethylsulfonyl)-2-fluorophenyl)pyridin-2(1H)-one] |  | 51 |  |  | 6 |  | 
CS(=O)(=O)c1ccc(-n2cc(Cl)c(OC3CCN(c4ncc(C(F)(F)F)cn4)CC3)cc2=O)cc1F [Example 3, 5-Chloro-1-(3-fluoro-4-(methylsulfonyl)phenyl)-4-(1-(5-(trifluoromethyl)pyrimidin-2-yl)piperidin-4-yloxy)pyridin-2(1H)-one] | 7 | 108 | 0.1 | −28 |  |  | 
CS(=O)(=O)c1ccc(-n2cc(Cl)c(OC3CCN(c4ncc(Cl)cn4)CC3)cc2=O)cc1 [Example 4, 5-Chloro-4-(1-(5-chloropyrimidin-2-yl)piperidin-4-yloxy)-1-(4-(methylsulfonyl)phenyl)pyridin-2(1H)-one] | 5 |  | 0.03 | −24 |  |  | 57
